We go through 15 compounds from article PMC7178819, “6,7-Dimethoxy-2-phenethyl-1,2,3,4-tetrahydroisoquinoline amides and corresponding ester isosteres as multidrug resistance reversers” (Journal of Enzyme Inhibition and Medicinal Chemistry, 2020).

For series [1], the target named is T1, P-gp (Homo sapiens, UniProt P08183).
T1 construct: expressed in transfected cells; host or cells: MDCK-MDR1 (Madin-Darby Canine Kidney cells, gift of Prof. P. Borst, NKI-AVL)
In words: Inhibition of Calcein-AM transport in MDCK-MDR1 cells. The class given is cell-based. As to conditions: Calcein-AM, MDCK-MDR1 cells; mean ± SEM of two experiments. Here is the method: These experiments were carried out as previously described by Teodori et al. with minor modifications. Each cell line (30 000 cells per well) was seeded into black CulturePlate 96/wells plate with 100 µL medium and allowed to become confluent overnight. 100 µL of test compounds were solubilised in culture medium and added to monolayers, with final concentrations ranging from 1 nM to 100 µM. 96/Wells plate was incubated for 30 min in a humidified atmosphere 5% CO2 at 37 °C. Calcein-AM was added in 100 µL of Phosphate Buffered Saline (PBS) to yield a final concentration of 2.5 µM and plate was incubated for 30 min in a humidified atmosphere 5% CO2 at 37 °C. Each well was washed 3 times with ice cold PBS. Saline buffer was added to each well and the plate was read with Victor3 (PerkinElmer) at excitation and emission wavelengths of 485 and 535 nm, respectively. In these experimental conditions, Calcein cell accumulation in the absence and in the presence of tested compounds was evaluated and fluorescence basal level was estimated with untreated cells. In treated wells the increase of fluorescence with respect to basal level was measured. EC50 values were determined by fitting the fluorescence increase percentage versus log[dose].
The interaction potency between the designed compounds and P-gp was evaluated by measuring the transport inhibition of the pro-fluorescent probe Calcein-AM, that is a P-gp substrate, in a cell line overexpressing P-gp (MDCK-MDR1)[47]. The P-gp interacting profile was further investigated with two other assays: the Apparent Permeability (Papp) determination (BA/AB) in Caco-2 cell monolayer[48]^,[49], and the ATP cell depletion in the MDCK-MDR1 cell line[50]. […] Papp determination measures the ratio between two fluxes: from the basolateral to apical compartments (BA, representative of passive diffusion) and from the apical to basolateral compartments (AB, representative of active transport). […] In the same manner, if (BA/AB) >2, the compound should probably be classified as a substrate.

Series [2] addresses T1, P-gp. In words: ATP cell depletion (ATPlite assay) in MDCK-MDR1 cells. The class given is cell-based. Particulars: Yes/No. Here is the method:
The MDCK-MDR1 cells were seeded into 96-well microplate in 100 µL of complete medium at a density 20,000 cells per well. The plate was incubated overnight (O/N) in a humidified atmosphere 5% CO2 at 37 °C. The medium was removed and 100 µL of complete medium either alone or containing different concentrations (ranging from 1 to 100 µM) of test compounds was added. The plate was incubated for 2 h in a humidified 5% CO2 atmosphere at 37 °C. 50 µL of mammalian cell lysis solution was added to all wells and the plate shacked for five minutes in an orbital shaker. 50 µL of substrate solution was added to all wells and the plate shacked for five minutes in an orbital shaker. The plate was dark adapted for ten minutes and the luminescence was measured.
(§1) The interaction potency between the designed compounds and P-gp was evaluated by measuring the transport inhibition of the pro-fluorescent probe Calcein-AM, that is a P-gp substrate, in a cell line overexpressing P-gp (MDCK-MDR1)[47]. The P-gp interacting profile was further investigated with two other assays: the Apparent Permeability (Papp) determination (BA/AB) in Caco-2 cell monolayer[48]^,[49], and the ATP cell depletion in the MDCK-MDR1 cell line[50]. Taking into account the results of the combined tests, an interacting compound can be classified as substrate or inhibitor. Papp determination measures the ratio between two fluxes: from the basolateral to apical compartments (BA, representative of passive diffusion) and from the apical to basolateral compartments (AB, representative of active transport). […] In the same manner, if (BA/AB) >2, the compound should probably be classified as a substrate. […] The selectivity of ligands 1–26 was evaluated by detecting their activity towards the other ABC transporters MRP1 and BCRP, by measuring the inhibition of the efflux of Calcein-AM (i.e., also a MRP1 substrate) in cells overexpressing MRP1 (MDCK-MRP1 cells), and the inhibition of the efflux of the fluorescent probe Hoechst 33342 (i.e. a BCRP substrate) in cells overexpressing BCRP (MDCK-BCRP cells), respectively.

Series [3] in a line: Apparent permeability (Papp) determination (BA/AB) in Caco-2 cell monolayer. It counts as in vitro ADME. As to conditions: human, Caco-2 monolayer. On the procedure:
Caco-2 cells were seeded onto a Millicell® assay system (Millipore), where a cell monolayer is set in between a filter cell and a receiver plate, at a density of 10 000 cells/well[46]. The culture medium was replaced every 48 h and the cells kept for 21 days in culture. The Trans Epithelial Electrical Resistance (TEER) of the monolayers was measured daily, before and after the experiment, using an epithelial volt-ohmmeter (Millicell®-ERS). Generally, TEER values greater than 1000 Ω for a 21 days culture, are considered optimal.
After 21 days of Caco-2 cell growth, the medium was removed from filter wells and from the receiver plate, which were filled with fresh HBSS buffer (Invitrogen). This procedure was repeated twice, and the plates were incubated at 37 °C for 30 min. After incubation time, the HBSS buffer was removed and drug solutions and reference compounds were added to the filter well at the concentration of 100 µM, while fresh HBSS was added to the receiver plate. The plates were incubated at 37 °C for 120 min. Afterwards, samples were removed from the apical (filter well) and basolateral (receiver plate) side of the monolayer to measure the permeability.
as §1

Series [4] is described as follows: Stability test in human plasma (LC-MS/MS). Particulars: human plasma; for half-life at 1 µM: human, 37 °C. It counts as in vitro ADME. On the procedure:
Each sample was prepared adding 10 µL of working solution 1 to 100 µL of tested matrix (PBS or human plasma) in micro centrifuge tubes. The obtained solutions correspond to 1 µM of analyte.
After the incubation, the samples were added with 300 µL of ISTD solution and centrifuged (room temperature for 5 min at 10,000 rpm). The supernatants were transferred in auto sampler vials and dried under a gentle stream of nitrogen.
The dried samples were dissolved in 1.0 ml of 10 mM of formic acid in mQ water: acetonitrile 80:20 solution. The obtained sample solutions were analysed by LC-MS/MS methods described in Supplementary material.
For this purpose, a series of experiments were carried out, adding a known amount of analyte in both phosphate buffer solution (PBS) and in human plasma. The samples were analysed by LC-MS/MS method operating in Multiple Reaction Monitoring (MRM) mode[55].
The analyte concentration (1 µM) used during the stability tests is generally smaller than the corresponding Michaelis–Menten constant (KM); therefore, the enzymatic degradation rate is described by a first-order kinetic. Then, by plotting the natural logarithm of the quantitative data versus the incubation time, a linear function can be used and its slope represents the degradation rate (k).

T1 sequence (P08183 whole entry): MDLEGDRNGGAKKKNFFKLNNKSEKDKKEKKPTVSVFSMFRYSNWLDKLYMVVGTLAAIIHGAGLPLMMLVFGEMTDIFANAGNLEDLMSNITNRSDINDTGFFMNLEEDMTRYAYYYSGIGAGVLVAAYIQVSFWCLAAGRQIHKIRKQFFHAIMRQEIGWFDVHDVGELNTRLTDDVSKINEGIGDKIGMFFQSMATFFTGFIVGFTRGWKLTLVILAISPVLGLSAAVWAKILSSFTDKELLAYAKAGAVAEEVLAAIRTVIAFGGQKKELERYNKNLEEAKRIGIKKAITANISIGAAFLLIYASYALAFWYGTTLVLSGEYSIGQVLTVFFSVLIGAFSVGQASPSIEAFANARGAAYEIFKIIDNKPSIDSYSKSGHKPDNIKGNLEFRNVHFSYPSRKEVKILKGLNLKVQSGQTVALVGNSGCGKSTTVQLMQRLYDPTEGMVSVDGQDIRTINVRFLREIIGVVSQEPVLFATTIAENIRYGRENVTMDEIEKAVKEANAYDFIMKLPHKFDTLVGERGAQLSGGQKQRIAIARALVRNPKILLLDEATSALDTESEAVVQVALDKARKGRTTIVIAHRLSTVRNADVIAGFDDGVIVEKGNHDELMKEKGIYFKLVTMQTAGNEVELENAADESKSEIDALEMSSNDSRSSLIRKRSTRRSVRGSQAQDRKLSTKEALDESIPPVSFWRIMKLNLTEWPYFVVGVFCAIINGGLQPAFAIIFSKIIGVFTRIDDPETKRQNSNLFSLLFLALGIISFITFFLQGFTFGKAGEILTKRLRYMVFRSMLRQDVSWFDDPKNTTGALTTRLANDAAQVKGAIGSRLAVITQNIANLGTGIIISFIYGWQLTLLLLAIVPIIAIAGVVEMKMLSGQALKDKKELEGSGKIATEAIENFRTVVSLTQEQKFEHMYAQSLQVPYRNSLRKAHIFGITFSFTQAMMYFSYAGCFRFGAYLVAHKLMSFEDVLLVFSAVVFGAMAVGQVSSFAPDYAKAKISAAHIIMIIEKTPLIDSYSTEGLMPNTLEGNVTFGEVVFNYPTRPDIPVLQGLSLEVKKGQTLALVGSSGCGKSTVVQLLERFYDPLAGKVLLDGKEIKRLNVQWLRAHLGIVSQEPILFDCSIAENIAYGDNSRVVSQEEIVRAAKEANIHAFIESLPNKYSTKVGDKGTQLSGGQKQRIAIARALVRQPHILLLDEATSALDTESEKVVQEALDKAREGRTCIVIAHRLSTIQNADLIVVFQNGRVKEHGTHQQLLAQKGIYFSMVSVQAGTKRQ

With `COc1cc2c(cc1OC)CN(CCc1ccc(NC(=O)c3cccc4ccccc34)cc1)CC2` [Compound 6, N-(4–(2-(6,7-dimethoxy-3,4-dihydroisoquinolin-2(1H)-yl)ethyl)phenyl)-1-naphthamide], in series [1], the EC50 was 670 ± 120 nM. For the same compound, the ATP cell depletion entry in series [2] is given as “No”. For the same compound, the efflux ratio at 120 min, 100 µM in series [3] is 3.6. The compound also yielded a half-life at 1 µM in series [4] of at least 4 h.

In the case of `COc1cc2c(cc1OC)CN(CCc1ccc(NC(=O)c3c(OC)ccc4ccccc34)cc1)CC2` [Compound 7, N-(4–(2-(6,7-dimethoxy-3,4-dihydroisoquinolin-2(1H)-yl)ethyl)phenyl)-2-methoxy-1-naphthamide], the EC50 in series [1] is 120 ± 22 nM. For the same compound, in series [2], the ATP cell depletion result was “No”. In addition, the efflux ratio at 120 min, 100 µM in series [3] amounted to 11.8. The same compound had a half-life at 1 µM in series [4] of at least 4 h.

Regarding `COc1cc2c(cc1OC)CN(CCc1ccc(NC(=O)c3c(OC)cccc3OC)cc1)CC2` [Compound 4, N-(4–(2-(6,7-dimethoxy-3,4-dihydroisoquinolin-2(1H)-yl)ethyl)phenyl)-2,6-dimethoxybenzamide], in series [1], the EC50 was 7200 ± 1390 nM. For the same compound, the ATP cell depletion entry in series [2] is “No”. In addition, the efflux ratio at 120 min, 100 µM in series [3] is 5.5. This compound showed a half-life at 1 µM in series [4] of at least 4 h.

`COc1cc2c(cc1OC)CN(CCc1ccc(OC(=O)c3c(OC)cccc3OC)cc1)CC2` [Compound 17, 4–(2-(6,7-Dimethoxy-3,4-dihydroisoquinolin-2(1H)-yl)ethyl)phenyl 2,6-dimethoxybenzoate]: the EC50 in series [1] is 150 ± 30 nM. Besides, the ATP cell depletion result in series [2] is recorded as “No”. In addition, the efflux ratio at 120 min, 100 µM in series [3] is 6.2. For the same compound, the half-life at 1 µM in series [4] is at least 4 h.

As for `COc1ccc2nccc(C(=O)Nc3ccc(CCN4CCc5cc(OC)c(OC)cc5C4)cc3)c2c1` [Compound 13, N-(4–(2-(6,7-dimethoxy-3,4-dihydroisoquinolin-2(1H)-yl)ethyl)phenyl)-6-methoxyquinoline-4-carboxamide], the concentration for a half-maximal effect (EC50) in series [1] was 660 ± 130 nM. Also, in series [2], the ATP cell depletion result is reported as “No”. Besides, in series [3], the efflux ratio at 120 min, 100 µM came out at 6.5. In series [4], this compound had a half-life at 1 µM of at least 4 h.

Regarding `COc1cc2c(cc1OC)CN(CCc1ccc(NC(=O)c3ccccc3OC)cc1)CC2` [Compound 2, N-(4–(2-(6,7-dimethoxy-3,4-dihydroisoquinolin-2(1H)-yl)ethyl)phenyl)-2-methoxybenzamide], the EC50 in series [1] is 440 ± 82 nM. The ATP cell depletion entry in series [2] was “No”. For the same compound, the efflux ratio at 120 min, 100 µM in series [3] came to 5.9. The same compound displayed a half-life at 1 µM in series [4] of at least 4 h.

As for `COc1cc2c(cc1OC)CN(CCc1ccc(OC(=O)c3cccnc3)cc1)CC2` [Compound 22, 4–(2-(6,7-Dimethoxy-3,4-dihydroisoquinolin-2(1H)-yl)ethyl)phenyl nicotinate], the concentration giving a half-maximal response (EC50) in series [1] is 29400 ± 4980 nM. In addition, the ATP cell depletion result in series [2] is on record as “No”. In addition, in series [3], the efflux ratio at 120 min, 100 µM amounted to 5. The half-life at 1 µM in series [4] was at least 4 h.

Turning to `COc1cc2c(cc1OC)CN(CCc1ccc(OC(=O)c3cnccn3)cc1)CC2` [Compound 24, 4–(2-(6,7-Dimethoxy-3,4-dihydroisoquinolin-2(1H)-yl)ethyl)phenyl pyrazine-2-carboxylate], the EC50 in series [1] was 1900 ± 320 nM. Moreover, the ATP cell depletion entry in series [2] is given as “No”. In addition, in series [3], the efflux ratio at 120 min, 100 µM came out at 4.9. This compound came in with a half-life at 1 µM in series [4] of 0.7 ± 0.333 h.

In the case of `COc1cc2c(cc1OC)CN(CCc1ccc(NC(=O)c3cccnc3)cc1)CC2` [Compound 9, N-(4–(2-(6,7-dimethoxy-3,4-dihydroisoquinolin-2(1H)-yl)ethyl)phenyl)nicotinamide], in series [1], the EC50 was 6400 ± 1260 nM. Also, in series [2], the ATP cell depletion result was “No”. For the same compound, the efflux ratio at 120 min, 100 µM in series [3] amounted to 7.3. Also, the half-life at 1 µM in series [4] was at least 4 h.

With `COc1cc2c(cc1OC)CN(CCc1ccc(NC(=O)c3cccc4c(=O)c5cccc(OC)c5[nH]c34)cc1)CC2` [elacridar, reference compound], in series [2], the ATP cell depletion result was “Yes^g”.

Regarding `COc1ccc(C(=O)Oc2ccc(CCN3CCc4cc(OC)c(OC)cc4C3)cc2)cn1` [Compound 23, 4–(2-(6,7-Dimethoxy-3,4-dihydroisoquinolin-2(1H)-yl)ethyl)phenyl 6-methoxynicotinate], the concentration for a half-maximal effect (EC50) in series [1] is 9240 ± 1810 nM. Also, the ATP cell depletion result in series [2] is “No”. For the same compound, the efflux ratio at 120 min, 100 µM in series [3] is 5.6. This compound yielded a half-life at 1 µM in series [4] of at least 4 h.

`COc1cc2c(cc1OC)CN(CCc1ccc(NC(=O)c3cnccn3)cc1)CC2` [Compound 11, N-(4–(2-(6,7-dimethoxy-3,4-dihydroisoquinolin-2(1H)-yl)ethyl)phenyl)pyrazine-2-carboxamide]: in series [1], the EC50 was 1900 ± 320 nM. Moreover, the ATP cell depletion result in series [2] was “No”. In addition, the efflux ratio at 120 min, 100 µM in series [3] stood at 4.9. Further, the half-life at 1 µM in series [4] is at least 4 h.

With `COc1ccc(C(=O)Nc2ccc(CCN3CCc4cc(OC)c(OC)cc4C3)cc2)cn1` [Compound 10, N-(4–(2-(6,7-dimethoxy-3,4-dihydroisoquinolin-2(1H)-yl)ethyl)phenyl)-6-methoxynicotinamide], the concentration giving a half-maximal response (EC50) in series [1] is 2300 ± 440 nM. The ATP cell depletion result in series [2] is listed as “No”. In addition, the efflux ratio at 120 min, 100 µM in series [3] turned out to be 7.5. The same compound gave a half-life at 1 µM in series [4] of at least 4 h.

Consider `COc1ccc2nccc(C(=O)Oc3ccc(CCN4CCc5cc(OC)c(OC)cc5C4)cc3)c2c1` [Compound 26, 4–(2-(6,7-Dimethoxy-3,4-dihydroisoquinolin-2(1H)-yl)ethyl)phenyl 6-methoxyquinoline-4-carboxylate], for which the EC50 in series [1] was 1400 ± 260 nM. Further, the ATP cell depletion entry in series [2] was “No”. In series [3], the efflux ratio at 120 min, 100 µM stood at 8.7. In series [4], the half-life at 1 µM was found to be 2.07 ± 0.45 h.

The compound `CCOC(=O)C(C)c1cccc(C(=O)c2ccccc2)c1` (stereo not drawn) [KEE, Ketoprofen ethyl ester, reference compound] displayed a t1/2 in series [4] (reference compound for enzymatic activity of the batch) of under 2 h.
